Paper PMC8373216, “Development and Preclinical Evaluation of New Inhaled Lipoglycopeptides for the Treatment of Persistent Pulmonary Methicillin-Resistant Staphylococcus aureus Infections” (Antimicrobial Agents and Chemotherapy, 2021)
Converted amounts (≈) assume the structure as drawn. Like-named read-outs stand apart in the source and are kept apart here.

Tests used:
[1] = system: Staphylococcus epidermidis; assay: Expanded panel broth microdilution MIC/MBC; type: cell-based; conditions: for MIC: Staphylococcus epidermidis
[2] = system: MRSA ATCC BAA 1556 (USA300) biofilm; assay: Static MRSA biofilm killing, plastic microtiter plate, MEM
[3] = system: Streptococcus dysgalactiae; assay: Expanded panel broth microdilution MIC/MBC; type: cell-based; conditions: for MIC: Streptococcus dysgalactiae
Enterococcus faecium = assay: Expanded panel broth microdilution MIC/MBC; type: cell-based; conditions: for MIC: Enterococcus faecium, read-out: MIC
MSSA ATCC 29213 = assay: In-house broth microdilution MIC screening; type: cell-based; conditions: Staphylococcus aureus; broth microdilution; read-out: MIC Value, MSSA ATCC 29213
Streptococcus anginosus = assay: Expanded panel broth microdilution MIC/MBC; type: cell-based; conditions: for MIC: Streptococcus anginosus, read-out: MIC
Clostridioides difficile = assay: Expanded panel broth microdilution MIC; type: cell-based
[4] = system: MRSA ATCC BAA 1556 (USA300) biofilm; assay: MRSA biofilm killing, MBEC assay system, TSB with 1% human plasma; conditions: MBEC
Clostridium. perfringens = assay: microbe, parasite or virus in culture; type: cell-based
Streptococcus mitis = assay: Expanded panel broth microdilution MIC/MBC; type: cell-based; conditions: for MIC: Streptococcus mitis
[5] = system: MRSA ATCC BAA 1556 (USA300); assay: In-house broth microdilution MIC screening; type: cell-based, Staphylococcus aureus
Streptococcus agalactiae = assay: Expanded panel broth microdilution MIC/MBC; type: cell-based; conditions: for MIC: Streptococcus agalactiae
Streptococcus pyogenes = assay: Expanded panel broth microdilution MIC/MBC; type: cell-based; conditions: S. pyogenes ermR
[6] = MRSA and MSSA isolates of Table 1

CCCCCCCCCCNC(=O)CNC1(C)CC(OC2C(Oc3c4cc5cc3Oc3ccc(cc3Cl)C(O)C3NC(=O)C(NC(=O)C5NC(=O)C(CC(N)=O)NC(=O)C(NC(=O)C(CC(C)C)NC)C(O)c5ccc(c(Cl)c5)O4)c4ccc(O)c(c4)-c4c(O)cc(O)cc4C(C(=O)O)NC3=O)OC(CO)C(O)C2O)OC(C)C1O (stereo not drawn) [RV94]
MIC:MBC ([1]; S. epidermidis MRSE, MBC on one organism): 1 | MIC ([1]; ATCC49134, S. epidermidis ATCC 49134, MSSE, read-out: MIC): 0.015 µg/mL (≈ 9.11 nM) | MIC ([1]; MRSE, S. epidermidis MMX 762, MRSE, read-out: MIC): 0.03 µg/mL (≈ 18.2 nM) | MIC ([1]; MRSE, S. epidermidis MMX 5145, MRSE, read-out: MIC): 0.015 µg/mL (≈ 9.11 nM) | MIC ([1]; MRSE, S. epidermidis MRSE, 2 isolates, read-out: MIC (median)): 0.03 µg/mL (≈ 18.2 nM) | MIC ([1]; S. epidermidis MSSE, 1 isolate, read-out: MIC): 0.015 µg/mL (≈ 9.11 nM) | Reduction in MRSA biofilm titer versus control ([2]; 2.5 μg/ml): 1 log10 CFU/ml | Reduction in MRSA biofilm titer versus control ([2]; doses 1 to 10 μg/ml): approximately 2 log10 CFU/ml | Concentrations with statistically significant reduction versus control biofilm ([2]; two-way ANOVA, Bonferroni): no statistical significance | MIC:MBC ([3]; S. dysgalactiae, MBC on one organism): 4 | MIC ([3]; S. dysgalactiae MMX 5121, read-out: MIC): 0.008 µg/mL (≈ 4.86 nM) | MIC ([3]; S. dysgalactiae MMX 5123, read-out: MIC): 0.03 µg/mL (≈ 18.2 nM) | MIC ([3]; S. dysgalactiae MMX 5124, read-out: MIC): 0.008 µg/mL (≈ 4.86 nM) | MIC ([3]; S. dysgalactiae, 3 isolates, read-out: MIC (median)): 0.008 µg/mL (≈ 4.86 nM) | MIC:MBC (Enterococcus faecium; E. faecium VanA VRE): >8 | MIC:MBC (Enterococcus faecium; E. faecium VanB VRE): >8 | MIC (Enterococcus faecium; E. faecium MMX 4204, VSE): 0.015 µg/mL (≈ 9.11 nM) | MIC (Enterococcus faecium; E. faecium VSE, 1 isolate): 0.015 µg/mL (≈ 9.11 nM) | MIC (Enterococcus faecium; VRE, E. faecium MMX 173, VanB VRE): 0.03 µg/mL (≈ 18.2 nM) | MIC (Enterococcus faecium; VRE, E. faecium MMX 851, VanA VRE): 2 µg/mL (≈ 1210 nM) | MIC (Enterococcus faecium; VRE, E. faecium VanA VRE, 1 isolate): 2 µg/mL (≈ 1210 nM) | MIC (Enterococcus faecium; VRE, E. faecium VanB VRE, 1 isolate): 0.03 µg/mL (≈ 18.2 nM) | MIC (MSSA ATCC 29213): 0.031 µg/mL (≈ 18.8 nM) | MIC:MBC (Streptococcus anginosus; S. anginosus AGS): >8 | MIC (Streptococcus anginosus; ATCC33397, S. anginosus (AGS) ATCC 33397): 0.015 µg/mL (≈ 9.11 nM) | MIC (Streptococcus anginosus; S. anginosus AGS, 1 isolate): 0.015 µg/mL (≈ 9.11 nM) | MIC (Clostridioides difficile; ATCCBAA1805, C. difficile ATCC BAA-1805, ribo 027, read-out: MIC): 0.015 µg/mL (≈ 9.11 nM) | MIC (Clostridioides difficile; ATCCBAA1870, C. difficile ATCC BAA-1870, NAP1;ribo 027, read-out: MIC): 0.06 µg/mL (≈ 36.4 nM) | MIC (Clostridioides difficile; C. difficile ATTC 700057, toxAB-, read-out: MIC): 0.015 µg/mL (≈ 9.11 nM) | MIC (Clostridioides difficile; C. difficile NAP1;ribo 027, 1 isolate, read-out: MIC): 0.06 µg/mL (≈ 36.4 nM) | MIC (Clostridioides difficile; C. difficile ribo 027, 1 isolate, read-out: MIC): 0.015 µg/mL (≈ 9.11 nM) | MIC (Clostridioides difficile; C. difficile toxAB-, 1 isolate, read-out: MIC): 0.015 µg/mL (≈ 9.11 nM) | Biofilm activity, fold more potent than vancomycin at the same dose ([4]; 16 μg/ml): 2 fold | Concentrations with statistically significant reduction versus control biofilm ([4]; two-way ANOVA, Bonferroni): ≥ 2 µg/mL | MIC (Clostridium. perfringens): 0.008 µg/mL (≈ 4.86 nM) | MIC (Clostridium. perfringens; ATCC13124): 0.008 µg/mL (≈ 4.86 nM) | MIC:MBC (Streptococcus mitis; S. mitis MGS, MBC on one organism): 1 | MIC (Streptococcus mitis; ATCC49456, S. mitis (MGS) ATCC 49456, read-out: MIC): 0.008 µg/mL (≈ 4.86 nM) | MIC (Streptococcus mitis; S. mitis (MGS) MMX 5798, read-out: MIC): 0.008 µg/mL (≈ 4.86 nM) | MIC (Streptococcus mitis; S. mitis MGS, 2 isolates, read-out: MIC (median)): 0.008 µg/mL (≈ 4.86 nM) | MIC potency, fold less potent than RV40 [5, 6]: ~2 fold | MIC potency, fold more potent than telavancin [5, 6]: ~2 fold | MIC potency, fold more potent than vancomycin [5, 6]: approximately 30 fold | MIC ([5]; Staphylococcus aureus, broth microdilution, read-out: MIC Value, MRSA ATCC BAA 1556): 0.031 µg/mL (≈ 18.8 nM) | MIC:MBC (Streptococcus agalactiae; S. agalactiae, MBC on one organism): 4 | MIC (Streptococcus agalactiae; ATCC13813, S. agalactiae ATCC 13813, read-out: MIC): 0.03 µg/mL (≈ 18.2 nM) | MIC (Streptococcus agalactiae; S. agalactiae MMX 4088, read-out: MIC): 0.008 µg/mL (≈ 4.86 nM) | MIC (Streptococcus agalactiae; S. agalactiae MMX 4115, ermR, read-out: MIC): 0.004 µg/mL (≈ 2.43 nM) | MIC (Streptococcus agalactiae; S. agalactiae ermR, 1 isolate, read-out: MIC): 0.004 µg/mL (≈ 2.43 nM) | MIC (Streptococcus agalactiae; S. agalactiae, 2 isolates, read-out: MIC (median)): 0.02 µg/mL (≈ 12.1 nM) | MIC:MBC (Streptococcus pyogenes): 1
